# Reference: patent publication US12115178B2, “Acylated active agents and methods of their use for the treatment of autoimmune disorders” (Flagship Pioneering Innovations V, Inc., priority 2018, dated 2024)
# Experiments:
# [1] = Assay 2. Stability in Simulated Intestinal Fluid (SIF); type: in vitro ADME; conditions: SIF pH 6.7 with pancreatin, 1 μM, 37° C.
# In short: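 Degradation rates came from LC/MS of acetonitrile-quenched samples drawn at intervals, starting at T0. The medium was freshly made pH 6.7 FaSSIF containing pancreatin, and test compound was present at 1 µM while being shaken at 37 °C.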
# [2] = Assay 3. In vitro Colonic Material Stability Assay; type: in vitro ADME; conditions: colonic material slurry, anaerobic, 1 or 10 μM
# Method: Assay 3. In vitro Colonic Material Stability Assay. This assay was used to assess the stability of an acylated active agent in a large intestine. All experiments were performed in an anaerobic chamber containing 90% nitrogen, 5% hydrogen and 5% carbon dioxide. Colonic material was resuspended as a slurry (15% w/v final concentration) in pre-reduced, anaerobically sterilized dilution blanks (Anaerobe Systems AS-908). The colonic material was then inoculated into 96 well plates containing YCFAC media (Anaerobe Systems AS-680) or other suitable media (6.7 μL slurry into 1 mL total media). Compounds or groups of compounds were added to each individual well to reach a final analyte concentration of 1 or 10 μM, and the material was mixed by pipetting. Sample was removed after set timepoints (0, 120, 240, 480, 1440, 2880 minutes after initiation of the assay), quenched with acetonitrile containing internal standard, and analyzed by LC/MS.
SMILES,Assay 2 (SIF) (% @ Remaining 4 hours) [1],Assay 3 (% Remaining at 24 h) [2]
"C[C@@H]1O[C@@H](OC(=O)CCc2c[nH]c3ccccc23)[C@@H](OC(=O)CCc2c[nH]c3ccccc23)[C@H](OC(=O)CCc2c[nH]c3ccccc23)[C@@H]1OC(=O)CCc1c[nH]c2ccccc12 [Compound 64, (2S,3S,4R,5R,6S)-3,4,5-tris({[3-(1H-indol-3-yl)propanoyl]oxy})-6-methyloxan-2-yl 3-(1H-indol-3-yl)propanoate]",A (<25% of the tested compound remaining),A (<25% of the tested compound remaining)
"CCCC(=O)O[C@@H]1[C@@H](OC(=O)CCC)[C@H](Oc2ccc(N)cc2C(=O)O)OC[C@H]1OC(=O)CCC [Compound 183, 5-amino-2-[(2S,3R,4S,5R)-3,4,5-tri(butanoyloxy)tetrahydropyran-2-yl]oxy-benzoic acid]",B (25-75% of the tested compound remaining),B (25-75% of the tested compound remaining)
"CCCC(=O)O[C@@H]1[C@@H](OC(=O)CCC)[C@H](C)O[C@H](Oc2ccccc2C(=O)O)[C@@H]1OC(=O)CCC [Compound 38, 2-(((2R,3R,4R,5S,6S)-3,4,5-tris(butyryloxy)-6-methyltetrahydro-2H-pyran-2-yl)oxy)benzoic acid]",C (>75% of the tested compound remaining),C (>75% of the tested compound remaining)
"CCCC(=O)O[C@H]1[C@H](OC(=O)CCC)[C@H](Oc2ccccc2C(=O)O)O[C@@H](C)[C@H]1OC(=O)CCC [Compound 23, 2-(((2S,3S,4R,5R,6S)-3,4,5-tris(butyryloxy)-6-methyltetrahydro-2H-pyran-2-yl)oxy)benzoic acid]",B (25-75% of the tested compound remaining),C (>75% of the tested compound remaining)
"CCCC(=O)O[C@@H]1[C@@H](OC(=O)CCC)[C@H](OC)OC[C@H]1OC(=O)CCC [Compound 88, (2R,3R,4S,5R)-4,5-bis(butanoyloxy)-2-methoxyoxan-3-yl butanoate]",A (<25% of the tested compound remaining),A (<25% of the tested compound remaining)
"CCC(=O)Oc1cc(OC(=O)CC)c2c(=O)c(OC(=O)CC)c(-c3ccc(OC(=O)CC)c(OC(=O)CC)c3)oc2c1 [Compound 14, [4-[4-oxo-3,5,7-tri(propanoyloxy)chromen-2-yl]-2-propanoyloxy-phenyl] propanoate]",A (<25% of the tested compound remaining),C (>75% of the tested compound remaining)
"CCCC(=O)OC[C@H]1O[C@@H](Oc2ccc(N)cc2C(=O)O)[C@H](OC(=O)CCC)[C@@H](OC(=O)CCC)[C@@H]1OC(=O)CCC [Compound 36, 5-amino-2-(((2S,3R,4S,5R,6R)-3,4,5-tris(butyryloxy)-6-((butyryloxy)methyl)tetrahydro-2H-pyran-2-yl)oxy)benzoic acid]",C (>75% of the tested compound remaining),C (>75% of the tested compound remaining)
"CCCC(=O)O[C@H]1[C@H](OC(=O)CCC)COC(O)[C@@H]1OC(=O)CCC (stereo partly drawn) [Compound 158, (3R,4S,5R)-4,5-bis(butanoyloxy)-2-hydroxyoxan-3-yl butanoate]",A (<25% of the tested compound remaining),A (<25% of the tested compound remaining)
"CCC(=O)OC[C@H]1O[C@@H](OC)[C@H](OC(=O)CC)[C@@H](OC(=O)CC)[C@@H]1OC(=O)CC [Compound 59, [(2R,3R,4S,5R,6R)-6-methoxy-3,4,5-tris(propanoyloxy)oxan-2-yl]methyl propanoate]",A (<25% of the tested compound remaining),A (<25% of the tested compound remaining)
